Assay results: patent publication US9624216B2, “Quinolinone five-membered heterocyclic compounds as mutant-isocitrate dehydrogenase inhibitors” (Forma Therapeutics, Inc., priority 2015, dated 2017)

Columns and labels:
[1] = target: IDH1-R132H recombinant protein (Homo sapiens, UniProt O75874, R132H); test: IDH1-R132H enzymatic assay (NADPH consumption, diaphorase/resazurin readout); format: biochemical; settings: 30 nM IDH1-R132H, inhibition of NADPH consumption; read-out: Enzyme IDH1 R132H IC50
Sequence of IDH1-R132H recombinant protein (O75874 whole entry R132H): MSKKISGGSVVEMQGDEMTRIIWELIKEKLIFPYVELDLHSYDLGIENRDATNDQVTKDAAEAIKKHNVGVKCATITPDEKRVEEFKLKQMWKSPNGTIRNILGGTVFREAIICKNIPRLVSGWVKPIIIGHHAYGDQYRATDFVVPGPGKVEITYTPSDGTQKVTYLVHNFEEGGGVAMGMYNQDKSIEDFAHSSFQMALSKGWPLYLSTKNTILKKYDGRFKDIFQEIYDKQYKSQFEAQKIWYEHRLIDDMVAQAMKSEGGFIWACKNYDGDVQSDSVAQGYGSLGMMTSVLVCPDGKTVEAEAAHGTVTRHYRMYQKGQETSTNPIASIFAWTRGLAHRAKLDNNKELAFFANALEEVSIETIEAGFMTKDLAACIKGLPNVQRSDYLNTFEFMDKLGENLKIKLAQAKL
Procedure: (§1) IDH1-R132H and IDH1-R132C Enzymatic Assay
(§2) Assays were performed in a 384-well black plate. An aliquot of 250 nL of compound was incubated with 10 μL of 30 nM IDH1-R132H or 10 nM IDH1-R132C recombinant protein in assay buffer (50 mM Tris pH=7.5, 150 mM NaCl, 5 mM MgCl2, 0.1% (w/v) Bovine Serum Albumin, and 0.01% Triton X-100) in each well at 25° C. for 15 minutes. After the plate was centrifuged briefly, an aliquot of 10 μL of 2 mM α-ketoglutarate and 20 μM NADPH solution prepared in assay buffer was then added to each well and the reaction was maintained at 25° C. for 45 minutes. An aliquot of 10 μL of diaphorase solution (0.15 U/mL diaphorase and 30 μM Resazurin in assay buffer) was added to each well. The plate was maintained at 25° C. for 15 minutes and then read on a plate reader with excitation and emission wavelengths at 535 nm and 590 nm, respectively. The IC50 of a given compound was calculated by fitting the dose response curve of inhibition of NADPH consumption at a given concentration with the four parameter logistic equation.

[2] = target: IDH1-R132C recombinant protein (Homo sapiens, UniProt O75874, R132C); test: IDH1-R132C enzymatic assay (NADPH consumption, diaphorase/resazurin readout); format: biochemical; settings: 10 nM IDH1-R132C, inhibition of NADPH consumption; read-out: Enzyme IDH1 R132C IC50
Sequence of IDH1-R132C recombinant protein (O75874 whole entry R132C): as the sequence (O75874 whole entry R132H) above, with H132C counted along it
Procedure: as §1, §2

[3] = target: T1, HCT116 isogenic IDH1-R132H mutant cells (Homo sapiens, UniProt O75874, R132H); test: Cellular 2-HG assay using HCT116 mutant IDH1 cells (R132H); format: cell-based; settings: cellular 2-HG inhibition, 24 hours, RapidFire mass spectrometry
T1 construct: HCT116 isogenic IDH1-R132H and IDH1-R132C mutant cells; endogenous in cells; host or cells: HCT116 isogenic IDH1-R132H mutant cells (kept under G418)
T1 sequence (O75874 2-414 R132H limits assumed): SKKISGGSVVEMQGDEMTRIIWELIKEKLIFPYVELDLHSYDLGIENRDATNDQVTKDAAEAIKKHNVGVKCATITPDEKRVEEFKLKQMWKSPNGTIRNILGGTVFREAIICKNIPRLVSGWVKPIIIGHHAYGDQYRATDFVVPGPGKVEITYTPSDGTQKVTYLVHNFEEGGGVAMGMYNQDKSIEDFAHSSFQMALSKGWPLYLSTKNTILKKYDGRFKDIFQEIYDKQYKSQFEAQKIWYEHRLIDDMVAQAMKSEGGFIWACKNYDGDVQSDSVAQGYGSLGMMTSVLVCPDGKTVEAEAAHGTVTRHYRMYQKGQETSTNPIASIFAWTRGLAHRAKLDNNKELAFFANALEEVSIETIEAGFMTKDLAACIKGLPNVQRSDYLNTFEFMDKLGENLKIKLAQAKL
Procedure: (§3) Cellular 2-HG Assay Using HCT116 Mutant IDH1 Cells
(§4) HCT116 isogenic IDH1-R132H and IDH1-R132C mutant cells were cultured in growth media (McCoy's 5A, 10% fetal bovine serum, 1× antibiotic-antimycotic solution and 0.3 mg/mL G418) in 5% CO2 in an incubator at 37° C. To prepare the assay, cells were trypsinized and resuspended in assay media (McCoy's 5A with no L-glutamine, 10% fetal bovine serum, 1× antibiotic-antimycotic solution and 0.3 mg/mL G418). An aliquot of 10,000 cells/100 μL was transferred to each well of a clear 96-well tissue culture plate. The cells were incubated in 5% CO2 at 37° C. in an incubator overnight to allow for proper cell attachment. An aliquot of 50 μL of compound containing assay media were then added to each well and the assay plate was kept in 5% CO2 at 37° C. in an incubator for 24 hours. The media was then removed from each well and 150 μL of a methanol/water mixture (80/20 v/v) was added to each well. The plates were kept at −80° C. freezer overnight to allow for complete cell lysis. An aliquot of 125 μL of extracted supernatant was analyzed by RapidFire high-throughout-mass spectrometry (Agilent) to determine the cellular 2-HG level. The IC50 of a given compound was calculated by fitting the dose response curve of cellular 2-HG inhibition at a given concentration with the four parameter logistic equation

[4] = target: T2, HCT116 isogenic IDH1-R132C mutant cells (Homo sapiens, UniProt O75874, R132C); test: Cellular 2-HG assay using HCT116 mutant IDH1 cells (R132C); format: cell-based; settings: cellular 2-HG inhibition, 24 hours, RapidFire mass spectrometry
T2 construct: HCT116 isogenic IDH1-R132H and IDH1-R132C mutant cells; endogenous in cells; host or cells: HCT116 isogenic IDH1-R132C mutant cells (kept under G418)
T2 sequence (O75874 2-414 R132C limits assumed): as the sequence (O75874 2-414 R132H limits assumed) above, with H131C counted along it
Procedure: as §3, §4

Structure (SMILES) | IC50 [1] | IC50 [2] | IC50 [3] | IC50 [4] | melting point
CC(Nc1ncc(C#N)s1)c1cc2cc(Cl)c(OCc3ccccn3)cc2[nH]c1=O (racemic) [Compound I-3, 2-((1-(6-chloro-2-oxo-7-(pyridin-2-ylmethoxy)-1,2-dihydroquinolin-3-yl)ethyl)amino)thiazole-5-carbonitrile] | < 100 nM | 100 to 1000 nM | 100 to 1000 nM | < 100 nM | –
C[C@H](Nc1ncc(C#N)s1)c1cc2cc(Cl)ccc2[nH]c1=O [Compound I-1, (S)-2-((1-(6-chloro-2-oxo-1,2-dihydroquinolin-3-yl)ethyl)amino)thiazole-5-carbonitrile] | < 100 nM | 100 to 1000 nM | 100 to 1000 nM | 100 to 1000 nM | 211 to 213 °C (dec.)
COc1cc2[nH]c(=O)c(C(C)Nc3ncc(C#N)s3)cc2cc1Cl (stereo not drawn) [Compound I-2, 2-((1-(6-chloro-7-methoxy-2-oxo-1,2-dihydroquinolin-3-yl)ethyl)amino)thiazole-5-carbonitrile] | < 100 nM | 100 to 1000 nM | < 100 nM | 100 to 1000 nM | –
C[C@H](Nc1ncc(C#N)s1)c1cc2cc(Cl)c(OCc3ccccn3)cc2[nH]c1=O [Compound I-4, (S)-2-((1-(6-chloro-2-oxo-7-(pyridin-2-ylmethoxy)-1,2-dihydroquinolin-3-yl)ethyl)amino)thiazole-5-carbonitrile] | < 100 nM | < 100 nM | < 100 nM | < 100 nM | –
C[C@@H](Nc1ncc(C#N)s1)c1cc2cc(Cl)c(OCc3ccccn3)cc2[nH]c1=O [Compound I-5, (R)-2-((1-(6-chloro-2-oxo-7-(pyridin-2-ylmethoxy)-1,2-dihydroquinolin-3-yl)ethyl)amino)thiazole-5-carbonitrile] | 100 to 1000 nM | 1000 to 10000 nM | – | – | –
CC(Nc1ncc(C#N)s1)c1cc2cc(Cl)cnc2[nH]c1=O (stereo not drawn) [Compound I-6, 2-((1-(6-chloro-2-oxo-1,2-dihydro-1,8-naphthyridin-3-yl)ethyl)amino)thiazole-5-carbonitrile] | 100 to 1000 nM | – | – | – | –
Cc1nc(N[C@@H](C)c2cc3cc(Cl)ccc3[nH]c2=O)sc1C#N [Compound I-7, (S)-2-((1-(6-chloro-2-oxo-1,2-dihydroquinolin-3-yl)ethyl)amino)-4-methylthiazole-5-carbonitrile] | < 100 nM | 100 to 1000 nM | < 100 nM | 100 to 1000 nM | –
CC(=O)Nc1cnc(N[C@@H](C)c2cc3cc(Cl)ccc3[nH]c2=O)s1 [Compound I-8, (S)-N-(2-((1-(6-chloro-2-oxo-1,2-dihydroquinolin-3-yl)ethyl)amino)thiazol-5-yl)acetamide] | 1000 to 10000 nM | > 10000 nM | – | – | –
CCOC(=O)c1sc(N[C@@H](C)c2cc3cc(Cl)ccc3[nH]c2=O)nc1C [Compound I-9, (S)-ethyl 2-((1-(6-chloro-2-oxo-1,2-dihydroquinolin-3-yl)ethyl)amino)-4-methylthiazole-5-carboxylate] | 1000 to 10000 nM | – | – | – | –
C[C@H](Nc1ncc(C(N)=O)s1)c1cc2cc(Cl)ccc2[nH]c1=O [Compound I-10, (S)-2-((1-(6-Chloro-2-oxo-1,2-dihydroquinolin-3-yl)ethyl)amino)thiazole-5-carboxamide] | 100 to 1000 nM | 1000 to 10000 nM | – | – | –
Cc1nc(N[C@@H](C)c2cc3cc(Cl)ccc3[nH]c2=O)sc1C(N)=O [Compound I-11, (S)-2-((1-(6-chloro-2-oxo-1,2-dihydroquinolin-3-yl)ethyl)amino)-4-methylthiazole-5-carboxamide] | < 100 nM | 100 to 1000 nM | < 100 nM | 100 to 1000 nM | –
C[C@H](Nc1nsc(N2CCOC2=O)n1)c1cc2cc(Cl)ccc2[nH]c1=O [Compound I-12, 6-chloro-3-[(1S)-1-{[5-(2-oxo-1,3-oxazolidin-3-yl)-1,2,4-thiadiazol-3-yl]amino}ethyl]-1,2-dihydroquinolin-2-one] | > 10000 nM | – | – | – | –
O=c1[nH]c2ccc(Cl)cc2cc1CNc1nc(-c2ccccn2)cs1 [Compound I-13, 6-chloro-3-({[4-(pyridin-2-yl)-1,3-thiazol-2-yl]amino}methyl)-1,2-dihydroquinolin-2-one] | 1000 to 10000 nM | – | – | – | –
O=c1[nH]c2ccc(Cl)cc2cc1CNc1nc(-c2ccc(F)c(F)c2)cs1 [Compound I-14, 6-chloro-3-({[4-(3,4-difluorophenyl)-1,3-thiazol-2-yl]amino}methyl)-1,2-dihydroquinolin-2-one] | 1000 to 10000 nM | – | – | – | –
COc1ccc2[nH]c(=O)c(CNc3nc4ccccc4s3)cc2c1 [Compound I-15, 3-{[(1,3-benzothiazol-2-yl)amino]methyl}-6-methoxy-1,2-dihydroquinolin-2-one] | > 10000 nM | – | – | – | –
CCc1c(C)sc(NCc2cc3cc(Cl)ccc3[nH]c2=O)c1C#N [Compound I-16, 2-{[(6-chloro-2-oxo-1,2-dihydroquinolin-3-yl)methyl]amino}-4-ethyl-5-methylthiophene-3-carbonitrile] | > 10000 nM | – | – | – | –
COc1ccc2[nH]c(=O)c(CNc3nc(C)c(C)s3)cc2c1 [Compound I-17, 3-{[(dimethyl-1,3-thiazol-2-yl)amino]methyl}-6-methoxy-1,2-dihydroquinolin-2-one] | > 10000 nM | – | – | – | –
